Results from ChEMBL document CHEMBL1147791, “Polyamines and the NMDA receptor: modifying intrinsic activities with aromatic substituents” (Bioorg Med Chem Lett, 2006).

Tests used:
Type in all cases: protein-complex assay
[1] = molecular target: T1, Glutamate NMDA receptor (Rattus norvegicus) (UniProt P35439+Q00959+Q00960+Q00961+Q62645+Q8VHN2+Q9R1M7); experiment: Attenuation at rat NMDA receptor assessed as ratio of inhibition of [3H]MK-801 binding to NMDA receptor in presence to absence of spermine
Glutamate NMDA receptor [2] = experiment: Inhibition of [3H]MK-801 binding to rat NMDA receptor
[3] = molecular target: T1, Glutamate NMDA receptor (Rattus norvegicus); experiment: (§1) Stimulation of [3H]MK-801 binding to rat NMDA receptor
Glutamate NMDA receptor [4] = experiment: as §1

c1ccc(CNCCCCNCCCNCc2ccccc2)cc1
Ratio IC50 [1]: 5.9 | IC50 (Glutamate NMDA receptor [2]): 6.2 µM

NCCCCN(CCCN)C(=O)c1ccccc1
Ratio IC50 [1]: > 10 | IC50 (Glutamate NMDA receptor [2]): 82 µM

NCCCCN(CCCN)C(=O)OCc1ccccc1
Ratio IC50 [1]: 67 | IC50 (Glutamate NMDA receptor [2]): 17.6 µM

O=C(Cc1ccccc1)NCCCNCCCCNCCCNC(=O)Cc1ccccc1
Ratio IC50 [1]: > 10 | IC50 (Glutamate NMDA receptor [2]): 103 µM

NCCCN(CCCCN(CCCNCCCc1ccccc1)CCCc1ccccc1)CCCc1ccccc1
Ratio IC50 [1]: 1.44 | IC50 (Glutamate NMDA receptor [2]): 13.1 µM

c1ccc(CCCNCCCNCCCCNCCCNCCCc2ccccc2)cc1
Ratio IC50 [1]: 0.92 | IC50 (Glutamate NMDA receptor [2]): 7.4 µM

N=C(N)NCCCN(CCCCN(CCCN)CCCc1ccccc1)CCCc1ccccc1
Ratio IC50 [1]: 1.5 | IC50 (Glutamate NMDA receptor [2]): 13 µM

O=C(NCCCCNCCCNC(=O)c1ccccc1)c1ccccc1
IC50 (Glutamate NMDA receptor [2]): > 300 µM

CC(C)NCCCN(CCCCN(CCCNC(C)C)Cc1ccc2ccccc2c1)Cc1ccc2ccccc2c1
Ratio IC50 [1]: 0.48 | IC50 (Glutamate NMDA receptor [2]): 44.6 µM

c1ccc(CCCNCCCN(CCCCN(CCCNCCCc2ccccc2)CCCc2ccccc2)CCCc2ccccc2)cc1
Ratio IC50 [1]: 1.49 | IC50 (Glutamate NMDA receptor [2]): 8.4 µM

c1ccc(CNCCCNCCCCNCCCNCc2ccccc2)cc1
Ratio IC50 [1]: 2.27 | IC50 (Glutamate NMDA receptor [2]): 6.12 µM

NCCCCN(CCCN)C1c2ccccc2CCc2ccccc21
Ratio IC50 [1]: 5.1 | IC50 (Glutamate NMDA receptor [2]): 14.2 µM

c1ccc2cc(CN(CCCCNCCCN(Cc3ccc4ccccc4c3)Cc3cccc4ccccc34)Cc3cccc4ccccc34)ccc2c1
Ratio IC50 [1]: 1.66 | IC50 (Glutamate NMDA receptor [2]): 14.3 µM

NCCCCN(CCCN)CCCc1ccccc1
IC50 (Glutamate NMDA receptor [2]): > 300 µM

CC(C)(C)OC(=O)N(CCCN)CCCCN(CCCN)C(=O)OC(C)(C)C
Ratio IC50 [1]: 5.3 | IC50 (Glutamate NMDA receptor [2]): 6680 µM

NCCCNCCCCN(CCCN)Cc1ccccc1
Activity [3]: 28% | EC50 (Glutamate NMDA receptor [4]): 2.7 µM | IC50 (Glutamate NMDA receptor [2]): > 300 µM

NCCCN(CCCCN(CCCN)C(=O)OCc1ccccc1)C(=O)OCc1ccccc1
Ratio IC50 [1]: 4.7 | IC50 (Glutamate NMDA receptor [2]): 17.2 µM

c1ccc(CCCNCCCCN(CCCNCCCc2ccccc2)CCCc2ccccc2)cc1
Ratio IC50 [1]: 2.03 | IC50 (Glutamate NMDA receptor [2]): 9.5 µM

NCCCN(CCCCN(CCCN)Cc1ccccc1)Cc1ccccc1
Ratio IC50 [1]: 4.3 | IC50 (Glutamate NMDA receptor [2]): 38 µM

c1ccc2cc(CNCCCNCCCCNCCCNCc3ccc4ccccc4c3)ccc2c1
Ratio IC50 [1]: 2.84 | IC50 (Glutamate NMDA receptor [2]): 4.7 µM

N=C(N)NCCCN(CCCCN(CCCNC(=N)N)CCCc1ccccc1)CCCc1ccccc1
Ratio IC50 [1]: 0.63 | IC50 (Glutamate NMDA receptor [2]): 11.2 µM

NCCCNCCCCNCCCNCCCc1ccccc1
Ratio IC50 [1]: 1.43 | IC50 (Glutamate NMDA receptor [2]): 25.6 µM

NCCCN(CCCCN(CCCN)Cc1ccc2ccccc2c1)Cc1ccc2ccccc2c1
Ratio IC50 [1]: 2.2 | IC50 (Glutamate NMDA receptor [2]): 9.1 µM

NCCCCN(CCCN)Cc1ccc2ccccc2c1
Ratio IC50 [1]: 13.1 | IC50 (Glutamate NMDA receptor [2]): 9.8 µM

O=C(NCCCCNCCCNC(=O)OCc1ccccc1)OCc1ccccc1
Ratio IC50 [1]: > 10 | IC50 (Glutamate NMDA receptor [2]): 56 µM

NCCCN(CCCCN(CCCN)CCCc1ccccc1)CCCc1ccccc1
Ratio IC50 [1]: 2.6 | IC50 (Glutamate NMDA receptor [2]): 26.7 µM

c1ccc(CCCN(CCCNCCCCNCCCN(CCCc2ccccc2)CCCc2ccccc2)CCCc2ccccc2)cc1
Ratio IC50 [1]: 1.58 | IC50 (Glutamate NMDA receptor [2]): 3.9 µM

NCCCCN(CCCN)Cc1ccccc1
IC50 (Glutamate NMDA receptor [2]): > 300 µM

NCCCNCCCCN(CCCN)CCCc1ccccc1
Ratio IC50 [1]: 0.93 | Activity [3]: 26% | EC50 (Glutamate NMDA receptor [4]): 1.8 µM | IC50 (Glutamate NMDA receptor [2]): 182 µM

CC(C)(C)OC(=O)N(CCCN)CCCCN
IC50 (Glutamate NMDA receptor [2]): > 300 µM

c1ccc2cc(CN(CCCNCCCCNCCCN(Cc3ccc4ccccc4c3)Cc3ccc4ccccc4c3)Cc3ccc4ccccc4c3)ccc2c1
Ratio IC50 [1]: 1.32 | IC50 (Glutamate NMDA receptor [2]): 8.7 µM

CC(C)NCCCN(CCCCN(CCCN)Cc1ccc2ccccc2c1)Cc1ccc2ccccc2c1
Ratio IC50 [1]: 1.96 | IC50 (Glutamate NMDA receptor [2]): 14 µM

c1ccc2c(CNCCCCNCCCNCc3cccc4ccccc34)cccc2c1
Ratio IC50 [1]: 2.2 | IC50 (Glutamate NMDA receptor [2]): 4.37 µM

NCCCNCCCCN(CCCN)Cc1ccc2ccccc2c1
Ratio IC50 [1]: 1.45 | IC50 (Glutamate NMDA receptor [2]): 58 µM
